Where two headings read alike, the source gives them in different places.
How the values were obtained:
[1] = test system: IL-17A secretion by CD4+ cells; test: IL-17A secretion by CD4+ cells (HTRF); type: cell-based; conditions: human peripheral blood CD4+ cells activated with anti-CD3 and anti-CD28, 4 days incubation, IL-17A by HTRF, read-out: IC50 hCD4/IL17
Protocol: This model allows measurement of the effect of inhibitors on IL-17A secretion by CD4+ cells. The cells are frozen CD4+ cells (STEMCELL, #70026), isolated from peripheral human blood and activated with anti-CD3 and anti-CD28 antibodies. The amount of IL-17A secreted is measured by the TR-FRET (kit HTRF® Human Interleukin 17A (Cisbio, #64H17PEC)) technology.
The cells are rapidly thawed, resuspended in their culture medium (RPMI inactivated 10% FCS) supplemented with soluble anti-CD28 antibodies and seeded (100 000 cells/well) in 96-well plates precoated with anti-CD3 antibodies. The cells are then treated with the ranges of inhibitors to be tested (from 1000 nM to 0.05 nM, 0.1% DMSO). After 4 days of incubation, the HTRF signal is measured using a microplate reader (λexcitation=337 nm, λemission=620/665 nm). The ratios obtained (665/620) are normalized relative to the positive control (cells activated with anti-CD3 and anti-CD28, 0.1% DMSO). The IC50 values are calculated from a 4-parameter logistic model using the XLFit software (IDBS).

[2] = target: T1, ROR gamma ligand-binding domain (LBD) (hRORg) (Homo sapiens, UniProt P51449); test: GAL4-RORγ transactivation (luciferase reporter, HG5LN HeLa line); type: cell-based; conditions: HG5LN HeLa line with GAL4 DBD fused to ROR gamma LBD, 18 hours incubation
T1 construct: expressed in transfected cells; host or cells: HG5LN (HeLa line with GAL4-responsive luciferase reporter)
T1 sequence (P51449 269-508 limits assumed): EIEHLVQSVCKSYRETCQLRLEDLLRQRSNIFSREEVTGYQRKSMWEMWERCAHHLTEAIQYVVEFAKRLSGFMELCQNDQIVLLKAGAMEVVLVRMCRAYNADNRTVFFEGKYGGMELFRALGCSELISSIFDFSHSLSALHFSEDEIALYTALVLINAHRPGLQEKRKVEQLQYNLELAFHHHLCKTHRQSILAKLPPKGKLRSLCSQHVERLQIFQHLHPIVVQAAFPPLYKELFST
Text: GAL4—RORγ Transactivation
The RORγ transactivation model was developed from the line HG5LN, which is a HeLa line that stably expresses a luciferase reporter gene controlled by a pentamer of the GAL4 recognition domain of yeast and of a β-globin promoter. The HG5LN line was stably transfected by the DNA-binding domain (DBD) of GAL4 fused to the ROR gamma ligand-binding domain (LBD). Molecules that inhibit the ROR gamma constitutive activity reduce the luciferase expression, thus leading to a reduction in the emitted luminescence.
The cells are seeded in 384-well plates (5000 cells in 45 μL/well of culture medium containing 10% fetal calf serum) and incubated for 4 hours at 37° C., 5% CO2. 5 μL of the test molecules (compounds described in the tables described above) are then added to each well and the plates are incubated for 18 hours at a temperature of 37° C. under 5% of CO2. 20 μL of luciferase substrate (Promega) are added to each well and the luminescence emitted is read by a microplate reader.
The luminescence units (“RLU”) are normalized by positive controls (“POS” containing a saturated concentration of N-(2,2,2-trifluoroethyl)-N-[4-[2,2,2-trifluoro-1-hydroxy-1-(trifluoromethyl)ethyl]phenyl])benzenesulfonamide and negative controls (“NEG” containing DMSO): % inhibition=((RLU-NEG)*100)/(POS-NEG). The IC50 values are calculated from a 4-parameter logistic model using the XLFit software (IDBS).

Structure (SMILES) | IC50 ([1]; 96 h) | IC50 [2] | IC50 [1]
CCc1ccc(N(CC(C)C)S(=O)(=O)c2ccc3c(c2)C(O)CCN3CC2(C)COC2)cc1 (centres unmarked) [Compound 19, 4-hydroxy-1-(3-methyloxetan-3-ylmethyl)-1,2,3,4-tetrahydroquinoline-6-sulfonic acid (4-ethylphenyl)isobutylamide] | < 100 nM | 100 to 1000 nM | 
CCc1ccc(N(CC(C)C)S(=O)(=O)c2ccc3c(c2)C(O)CCN3CC2(F)CCOCC2)cc1 (centres unmarked) [Compound 15, 1-(4-fluorotetrahydropyran-4-ylmethyl)-4-hydroxy-1,2,3,4-tetrahydroquinoline-6-sulfonic acid (4-ethylphenyl)isobutylamide] | < 100 nM | 100 to 1000 nM | 
CCc1ccc(N(CC(C)C)S(=O)(=O)c2ccc3c(c2)C(O)CCN3CC2CN(C(=O)OC)C2)cc1 (centres unmarked) [Compound 46, methyl ester of 3-{6-[(4-ethylphenyl)isobutylsulfamoyl]-4-hydroxy-3,4-dihydro-2H-quinolin-1-ylmethyl}azetidine-1-carboxylic acid] | 100 to 1000 nM | 100 to 1000 nM | 
CCc1ccc(N(CC(C)C)S(=O)(=O)c2ccc3c(c2)C(=O)CCN3CC2CCOCC2)cc1 [Compound 1, 4-oxo-1-(tetrahydropyran-4-ylmethyl)-1,2,3,4-tetrahydroquinoline-6-sulfonic acid (4-ethylphenyl)isobutylamide] | 100 to 1000 nM | 100 to 1000 nM | 
Cc1cc(C)c(N(CC(C)C)S(=O)(=O)c2ccc3c(c2)C(O)CCN3CC2CCOCC2)cn1 (centres unmarked) [Compound 66, 4-hydroxy-1-(tetrahydropyran-4-ylmethyl)-1,2,3,4-tetrahydroquinoline-6-sulfonic acid (4,6-dimethylpyridin-3-yl)isobutylamide] | > 1000 nM | > 1000 nM | 
CCc1ccc(N(CC(C)C)S(=O)(=O)c2ccc3c(c2)C(O)CCN3CC2CCOCC2)cc1 (single isomer, unassigned) [Enantiomer 2, 4-hydroxy-1-(tetrahydropyran-4-ylmethyl)-1,2,3,4-tetrahydroquinoline-6-sulfonic acid (4-ethylphenyl)isobutylamide] | < 100 nM | 100 to 1000 nM | 
CCc1ccc(N(CC(C)C)S(=O)(=O)c2ccc3c(c2)C(O)CCN3Cc2cn[nH]c2)cc1 (centres unmarked) [Compound 45, 4-hydroxy-1-(1H-pyrazol-4-ylmethyl)-1,2,3,4-tetrahydroquinoline-6-sulfonic acid (4-ethylphenyl)isobutylamide] | < 100 nM | 100 to 1000 nM | 

More lines, now with the values ahead:

IC50 ([1]; 96 h) | IC50 [2] | IC50 [1] | Structure (SMILES)
< 100 nM | < 100 nM |  | CCc1ccc(N(CC(C)C)S(=O)(=O)c2ccc3c(c2)C(O)CCN3CC2(C)CCOCC2)cc1 (centres unmarked) [Compound 14, 1-(4-methyltetrahydropyran-4-ylmethyl)-4-hydroxy-1,2,3,4-tetrahydroquinoline-6-sulfonic acid (4-ethylphenyl)isobutylamide]
< 100 nM | < 100 nM |  | CCc1ccc(N(CC(C)C)S(=O)(=O)c2ccc3c(c2)C(O)CCN3C[C@H]2[C@@H]3COC[C@@H]32)cc1 (stereo partly drawn) [Compound 37, 4-hydroxy-1-[(1S,5R,6S)-1-(3-oxabicyclo[3.1.0]hex-6-yl)methyl]-1,2,3,4-tetrahydroquinoline-6-sulfonic acid (4-ethylphenyl)isobutylamide]
< 100 nM | 100 to 1000 nM |  | CCc1ccc(N(CC(C)C)S(=O)(=O)c2ccc3c(c2)C(O)CCN3CC2CC(O)C2)cc1 (mixture of isomers) [Compound 20, 4-hydroxy-1-(3-hydroxycyclobutylmethyl)-1,2,3,4-tetrahydroquinoline-6-sulfonic acid (4-ethylphenyl)isobutylamide]
< 100 nM | < 100 nM |  | CCc1ccc(N(CC(C)C)S(=O)(=O)c2ccc3c(c2)C(O)CCN3Cc2ccnc(F)c2)cc1 (centres unmarked) [Compound 11, 1-(2-fluoropyridin-4-ylmethyl)-4-hydroxy-1,2,3,4-tetrahydroquinoline-6-sulfonic acid (4-ethylphenyl)isobutylamide]
< 100 nM | < 100 nM |  | CCc1ccc(N(CC(C)C)S(=O)(=O)c2ccc3c(c2)C(O)CCN3Cc2ccncc2)cc1 (centres unmarked) [Compound 10, 4-hydroxy-1-pyridin-4-ylmethyl-1,2,3,4-tetrahydroquinoline-6-sulfonic acid (4-ethylphenyl)isobutylamide]
< 100 nM | < 100 nM |  | CCc1ccc(N(CC(C)C)S(=O)(=O)c2ccc3c(c2)C(O)CCN3Cc2ccnnc2)cc1 (centres unmarked) [Compound 29, 4-hydroxy-1-pyridazin-4-ylmethyl-1,2,3,4-tetrahydroquinoline-6-sulfonic acid (4-ethylphenyl)isobutylamide]
< 100 nM | < 100 nM |  | CCc1ccc(N(CC(C)C)S(=O)(=O)c2ccc3c(c2)C(=O)CCN3Cc2ccncc2)cc1 [Compound 4, 4-oxo-1-pyridin-4-ylmethyl-1,2,3,4-tetrahydroquinoline-6-sulfonic acid (4-ethylphenyl)isobutylamide]
 | < 100 nM | < 100 nM | CCc1ccc(N(CC(C)C)S(=O)(=O)c2ccc3c(c2)C(O)CCN3CC2CCOCC2)cc1 (single isomer, unassigned) [Enantiomer 1, 4-hydroxy-1-(tetrahydropyran-4-ylmethyl)-1,2,3,4-tetrahydroquinoline-6-sulfonic acid (4-ethylphenyl)isobutylamide]
100 to 1000 nM | < 100 nM |  | CCc1ccc(N(CC(C)C)S(=O)(=O)c2ccc3c(c2)C(O)CCN3CC2CCOCC2)cc1 (racemic) [Compound 2, 4-hydroxy-1-(tetrahydropyran-4-ylmethyl)-1,2,3,4-tetrahydroquinoline-6-sulfonic acid (4-ethylphenyl)isobutylamide]
